Measurements from US20150141324A1 (priority 2011, published 2015).
Peptide text beside a SMILES is read from it. * marks the point of attachment. NH(4-amidinobenzyl) = N=C(N)c1ccc(CN*)cc1; Decanoyl = CCCCCCCCCC(=O)*; X2 = N=C(N)NC/C=C/CN*; CH2Cl = ClC*

Tests used:
[1] = test system: Escherichia coli O157:H7 Shiga toxin
[2] = target: T1, furin (Homo sapiens, UniProt P09958); assay type: cell-based
T1 construct: endogenous in cells; host or cells: HEK293
T1 sequence (P09958 108-794): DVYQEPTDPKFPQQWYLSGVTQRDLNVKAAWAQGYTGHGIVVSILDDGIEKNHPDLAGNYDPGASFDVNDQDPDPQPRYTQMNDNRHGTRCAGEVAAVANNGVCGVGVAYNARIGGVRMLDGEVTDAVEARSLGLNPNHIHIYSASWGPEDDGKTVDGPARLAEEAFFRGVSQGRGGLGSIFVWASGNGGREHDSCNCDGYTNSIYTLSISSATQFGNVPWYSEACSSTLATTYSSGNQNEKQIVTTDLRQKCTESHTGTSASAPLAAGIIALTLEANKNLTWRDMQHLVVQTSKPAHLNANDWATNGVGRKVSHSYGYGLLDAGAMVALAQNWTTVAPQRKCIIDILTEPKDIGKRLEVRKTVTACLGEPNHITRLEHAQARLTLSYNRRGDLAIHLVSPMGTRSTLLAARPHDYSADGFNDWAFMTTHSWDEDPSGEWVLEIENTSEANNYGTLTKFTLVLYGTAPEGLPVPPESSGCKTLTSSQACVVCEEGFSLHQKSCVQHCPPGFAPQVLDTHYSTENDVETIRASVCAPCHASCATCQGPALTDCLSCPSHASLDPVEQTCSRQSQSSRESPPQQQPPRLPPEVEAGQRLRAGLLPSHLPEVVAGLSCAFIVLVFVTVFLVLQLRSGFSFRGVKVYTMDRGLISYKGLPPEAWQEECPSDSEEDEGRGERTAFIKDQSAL

Compound | IC50 [1] [µM] | potency against furin in cell fusion inhibition, compared to RxxT control peptide [2] | IC50 described in words [1]
CC(=O)N[C@@H](CCCNC(=N)N)C(=O)N[C@@H](C)C(=O)N[C@@H](CCCNC(=N)N)C(=O)N[C@@H](CCCNC(=N)N)C(=O)N[C@@H](CCCNC(=N)N)C(=O)N[C@@H](CCCCN)C(=O)N[C@@H](CCCCN)C(=O)N[C@@H](CCCNC(=N)N)C(=O)N[C@H](C(N)=O)[C@@H](C)O [RxxT, Ac-R-A-R-R-R-K-K-R-T-NH2, reference compound] | > 1000 | – | –
CC(=O)N[C@@H](CCCNC(=N)N)C(=O)N[C@@H](C)C(=O)N[C@@H](CCCNC(=N)N)C(=O)N[C@@H](CCCNC(=N)N)C(=O)N[C@@H](CCCNC(=N)N)C(=O)N[C@@H](CCCCN)C(=O)N[C@@H](CCCCN)C(=O)NC/C=C/CNC(=N)N [Rxx[ΔAR-CO2]^P1] (Ac-RARRRKK-X2; N-terminus and C-terminus assumed) | 71 | increased potency | low IC50 values
CC(=O)NN(CCCNC(=N)N)CC(=O)N[C@@H](C)C(=O)N[C@@H](CCCNC(=N)N)C(=O)N[C@@H](CCCNC(=N)N)C(=O)N[C@@H](CCCNC(=N)N)C(=O)N[C@@H](CCCCN)C(=O)N[C@@H](CCCCN)C(=O)NN(CCCNC(=N)N)CC(=O)N[C@H](C(N)=O)[C@@H](C)O [RxxT[Azaβ3R]^P1-P8] | 20.8 | increased potency | similar
CC(=O)N[C@@H](CCCNC(=N)N)C(=O)N[C@@H](C)C(=O)N[C@@H](CCCNC(=N)N)C(=O)N[C@@H](CCCNC(=N)N)C(=O)N[C@@H](CCCNC(=N)N)C(=O)N[C@@H](CCCCN)C(=O)N[C@@H](CCCCN)C(=O)NN(CCCNC(=N)N)CC(=O)N[C@H](C(N)=O)[C@@H](C)O [RxxT[Azaβ3R]^P1] | 314 | increased potency | low IC50 values
CCCCCCCCCC(=O)N[C@@H](CCCNC(=N)N)C(=O)N[C@H](C(=O)N[C@@H](CCCCN)C(=O)N[C@@H](CCCNC(=N)N)C(=O)CCl)[C@@H](C)O [DEC-RTKR-CMK, reference compound] (Decanoyl-RTKR-CH2Cl) | 11.5 | – | –
C[C@H](NC(=O)[C@H](CCCNC(=N)N)NC(=O)CCCCCCCN)C(=O)N[C@@H](CCCNC(=N)N)C(=O)N[C@@H](CCCNC(=N)N)C(=O)N[C@@H](CCCNC(=N)N)C(=O)N[C@@H](CCCCN)C(=O)N[C@@H](CCCCN)C(=O)NN(CCCNC(=N)N)CC(=O)N[C@H](C(N)=O)[C@@H](C)O [Aoc-RxxT[Azaβ3R]^P1] | 16.7 | increased potency | similar
CC(=O)N[C@@H](CCCNC(=N)N)C(=O)N[C@@H](C)C(=O)N[C@@H](CCCNC(=N)N)C(=O)N[C@@H](CCCNC(=N)N)C(=O)N[C@@H](CCCNC(=N)N)C(=O)N[C@@H](CCCCN)C(=O)N[C@@H](CCCCN)C(=O)NCc1ccc(C(=N)N)cc1 [Rxx[AMBA]^P1] (Ac-RARRRKK-{NH(4-amidinobenzyl)}) | > 1000 | – | –
